Reference: the NIST ThermoML archive (doi:10.1021/je049816w)

Details: Liquid, Ebulliometric method (Recirculating still)

CCOC(C)OCC [1,1-diethoxyethane]
Details | vapor or sublimation pressure [kPa]
328.35 K | 19
341.62 K | 32.1
345.13 K | 36.7
348.33 K | 41.1
353.38 K | 49.2
357.95 K | 57.9
361.96 K | 66.1
364.68 K | 72.3
366.99 K | 77.9
369.09 K | 83.1
371.7 K | 90.1
373.41 K | 94.8
375.27 K | 100
